Here are results for 11 molecules from patent publication US10206394B2, “Herbicidal compounds” (Syngenta Participations AG, priority 2014, dated 2019).

Experiment in all cases: Glasshouse assay for herbicidal activity (pre- and post-emergence), percentage phytotoxicity
What all share (type): in vivo

For test [1], the system named is Alopecurus myosuroides (ALOMY). Particulars: Alopecurus myosuroides. Here is the method:
(§1) Test—Glasshouse Assay for Herbicidal Activity
(§2) Seeds of a variety of monocotyledonous and dicotyledonous test plants are sown in standard soil in pots. The plants are cultivated for one day (for pre-emergence (PRE)) or for about 12 days (for post-emergence (POST)) under controlled conditions in a glasshouse (warm climate species at 24/18° C., cool climate species at 20/16° C., both at day/night; 16 hours light; 65% humidity).
(§3) The test plants are then grown on, in a glasshouse (greenhouse) under controlled conditions (warm climate species at 24/18° C., cool climate species at 20/16° C., both at day/night; 16 hours light; 65% humidity) and are watered twice daily. 15 days after application of the test herbicide (15 DAA) (for post-emergence), and 20 days after application of the test herbicide (20 DAA) (for pre-emergence), the test plants are evaluated visually, and an assessed percentage phytotoxicity score is given for each herbicidal application on each plant species (with 100%=total damage to plant; 0%=no damage to plant).
(§4) The plant species tested are as follows: Alopecurus myosuroides (ALOMY), Avena fatua (AVEFA), Lolium perenne (LOLPE), Echinochloa crus-galli (ECHCG).

In test [2] the test system is Lolium perenne (LOLPE). Particulars: Lolium perenne. Here is the method: as §1, §2, §3, §4
For test [3], the system named is Echinochloa crus-galli (ECHCG). To be noted: Echinochloa crus-galli. The procedure:
as §1, §2, §3, §4

The test system of test [4] is Avena fatua (AVEFA). Particulars: Avena fatua. The procedure:
as §1, §2, §3, §4

[5] abbreviates: post-emergence, 360 h, POST-emergence, rate 250 g/ha, visual score 15 DAA (100%=total damage, 0%=no damage), read-out: Post-emergence herbicidal activity (percentage phytotoxicity) ALOMY POST.
The mark [6] stands for this setting: pre-emergence, 480 h, PRE-emergence, rate 250 g/ha, visual score 20 DAA (100%=total damage, 0%=no damage), read-out: Pre-emergence herbicidal activity (percentage phytotoxicity) ALOMY PRE.
Setting [7] is: post-emergence, 360 h, POST-emergence, rate 250 g/ha, visual score 15 DAA (100%=total damage, 0%=no damage), read-out: Post-emergence herbicidal activity (percentage phytotoxicity) LOLPE POST.
[8] abbreviates: pre-emergence, 480 h, PRE-emergence, rate 250 g/ha, visual score 20 DAA (100%=total damage, 0%=no damage), read-out: Pre-emergence herbicidal activity (percentage phytotoxicity) LOLPE PRE.
Where [9] appears, read: post-emergence, 360 h, POST-emergence, rate 250 g/ha, visual score 15 DAA (100%=total damage, 0%=no damage), read-out: Post-emergence herbicidal activity (percentage phytotoxicity) ECHCG POST.
[10] abbreviates: pre-emergence, 480 h, PRE-emergence, rate 250 g/ha, visual score 20 DAA (100%=total damage, 0%=no damage), read-out: Pre-emergence herbicidal activity (percentage phytotoxicity) ECHCG PRE.
The mark [11] stands for this setting: post-emergence, 360 h, POST-emergence, rate 250 g/ha, visual score 15 DAA (100%=total damage, 0%=no damage), read-out: Post-emergence herbicidal activity (percentage phytotoxicity) AVEFA POST.
Where [12] appears, read: pre-emergence, 480 h, PRE-emergence, rate 250 g/ha, visual score 20 DAA (100%=total damage, 0%=no damage), read-out: Pre-emergence herbicidal activity (percentage phytotoxicity) AVEFA PRE.
Setting [13] is: post-emergence, 360 h, Rate 250 g/ha, post-emergence, visual assessment 15 DAA, 100%=total damage, 0%=no damage, read-out: Post-emergence herbicidal activity (percentage phytotoxicity) ALOMY POST.
Setting [14] is: pre-emergence, 480 h, Rate 250 g/ha, pre-emergence, visual assessment 20 DAA, 100%=total damage, 0%=no damage, read-out: Pre-emergence herbicidal activity (percentage phytotoxicity) ALOMY PRE.
Setting [15] is: post-emergence, 360 h, Rate 250 g/ha, post-emergence, visual assessment 15 DAA, 100%=total damage, 0%=no damage, read-out: Post-emergence herbicidal activity (percentage phytotoxicity) LOLPE POST.
Where [16] appears, read: pre-emergence, 480 h, Rate 250 g/ha, pre-emergence, visual assessment 20 DAA, 100%=total damage, 0%=no damage, read-out: Pre-emergence herbicidal activity (percentage phytotoxicity) LOLPE PRE.
[17] abbreviates: post-emergence, 360 h, Rate 250 g/ha, post-emergence, visual assessment 15 DAA, 100%=total damage, 0%=no damage, read-out: Post-emergence herbicidal activity (percentage phytotoxicity) ECHCG POST.
The mark [18] stands for this setting: pre-emergence, 480 h, Rate 250 g/ha, pre-emergence, visual assessment 20 DAA, 100%=total damage, 0%=no damage, read-out: Pre-emergence herbicidal activity (percentage phytotoxicity) ECHCG PRE.
[19] abbreviates: post-emergence, 360 h, Rate 250 g/ha, post-emergence, visual assessment 15 DAA, 100%=total damage, 0%=no damage, read-out: Post-emergence herbicidal activity (percentage phytotoxicity) AVEFA POST.
The mark [20] stands for this setting: pre-emergence, 480 h, Rate 250 g/ha, pre-emergence, visual assessment 20 DAA, 100%=total damage, 0%=no damage, read-out: Pre-emergence herbicidal activity (percentage phytotoxicity) AVEFA PRE.

Molecules are shown by their SMILES. Read-outs that look alike come from different tables or passages of the source.

Regarding `COCC#CC(C)(C)NC(=O)CC1CC(=O)C(c2c(C)cc(C)cc2C)C1=O` (stereo not shown) [Compound A104], the pest or weed control at 250 g/ha in test [1] (post-emergence, 360 h, Rate 250 g/ha, post-emergence, assessed visually 15 DAA, 100%=total damage, 0%=no damage, read-out: Post-emergence herbicidal activity (percentage phytotoxicity) ALOMY POST) stood at 90%; in test [1] (pre-emergence, 480 h, Rate 250 g/ha, pre-emergence, assessed visually 20 DAA, 100%=total damage, 0%=no damage, read-out: Pre-emergence herbicidal activity (percentage phytotoxicity) ALOMY PRE), 90%; in test [2] (post-emergence, 360 h, Rate 250 g/ha, post-emergence, assessed visually 15 DAA, 100%=total damage, 0%=no damage, read-out: Post-emergence herbicidal activity (percentage phytotoxicity) LOLPE POST) it was 60%; in test [2] (pre-emergence, 480 h, Rate 250 g/ha, pre-emergence, assessed visually 20 DAA, 100%=total damage, 0%=no damage, read-out: Pre-emergence herbicidal activity (percentage phytotoxicity) LOLPE PRE) it was 80%; in test [3] (post-emergence, 360 h, Rate 250 g/ha, post-emergence, assessed visually 15 DAA, 100%=total damage, 0%=no damage, read-out: Post-emergence herbicidal activity (percentage phytotoxicity) ECHCG POST) it was 70%; in test [3] (pre-emergence, 480 h, Rate 250 g/ha, pre-emergence, assessed visually 20 DAA, 100%=total damage, 0%=no damage, read-out: Pre-emergence herbicidal activity (percentage phytotoxicity) ECHCG PRE), 80%. The pest or weed control at 250 g/ha in test [4] (post-emergence, 360 h, Rate 250 g/ha, post-emergence, assessed visually 15 DAA, 100%=total damage, 0%=no damage, read-out: Post-emergence herbicidal activity (percentage phytotoxicity) AVEFA POST) was found to be 70%; in test [4] (pre-emergence, 480 h, Rate 250 g/ha, pre-emergence, assessed visually 20 DAA, 100%=total damage, 0%=no damage, read-out: Pre-emergence herbicidal activity (percentage phytotoxicity) AVEFA PRE), 0%.

Turning to `CCc1cc(-n2cc(Cl)cn2)cc(C)c1C1C(=O)CC(CC(=O)NCc2ccc(C#N)cc2)C1=O` (stereo not shown) [Compound B234], the pest or weed control at 250 g/ha was 90% in test [1] (setting [5]); 60% in test [1] (setting [6]); 80% in test [2] (setting [7]); 70% in test [2] (setting [8]); 90% in test [3] (setting [9]); 70% in test [3] (setting [10]). Also, the pest or weed control at 250 g/ha was found to be 100% in test [4] (setting [11]) and 80% in test [4] (setting [12]).

Consider `Cc1cc(OCC(F)(F)F)cc(C)c1C1C(=O)CC(CC(=O)NC(C)C)C1=O` (stereo not shown) [Compound B208], for which the pest or weed control at 250 g/ha in test [1] (setting [5]) was determined as 90%; in test [1] (setting [6]), 90%; in test [2] (setting [7]), 90%; in test [2] (setting [8]) it was 80%; in test [3] (setting [9]), 100%; in test [3] (setting [10]), 100%. Besides, the pest or weed control at 250 g/ha in test [4] (setting [11]) was determined as 90%; in test [4] (setting [12]), 80%.

Regarding `Cc1cc(-c2ncc(F)cc2F)cc(C)c1C1C(=O)CC(CC(=O)NC(C)C)C1=O` (stereo not shown) [Compound B203], the pest or weed control at 250 g/ha in test [1] (setting [5]), in test [1] (setting [6]), in test [2] (setting [7]), in test [2] (setting [8]), in test [3] (setting [9]) and in test [3] (setting [10]) was 100% in each case. For the same molecule, the pest or weed control at 250 g/ha in test [4] (setting [11]) and in test [4] (setting [12]) was 100% throughout.

On to `Cc1cc(-c2ncc(Br)cn2)cc(C)c1C1C(=O)CC(CC(=O)NC(C)(C)C)C1=O` (stereo not shown) [Compound B268], for which the pest or weed control at 250 g/ha in test [1] (setting [5]) stood at 90%; in test [1] (setting [6]), 100%; in test [2] (setting [7]) it was 100%; in test [2] (setting [8]), 100%; in test [3] (setting [9]) it was 100%; in test [3] (setting [10]), 100%. The values for the pest or weed control at 250 g/ha in test [4] (setting [11]) and in test [4] (setting [12]) were 100% and 90%, respectively.

As for `C=CCNC(=O)CC1CC(=O)C(c2c(C)cc(OCC(F)(F)F)cc2CC)C1=O` (stereo not shown) [Compound B218], the pest or weed control at 250 g/ha in test [1] (setting [5]), in test [1] (setting [6]), in test [2] (setting [7]), in test [2] (setting [8]), in test [3] (setting [9]) and in test [3] (setting [10]) was 100% throughout. Moreover, the pest or weed control at 250 g/ha in test [4] (setting [11]) is 100%; in test [4] (setting [12]), 90%.

For the molecule `Cc1cc(-c2ncc(F)cn2)cc(C)c1C1C(=O)CC(CC(=O)NC(C)C)C1=O` (stereo not shown) [Compound B275], the pest or weed control at 250 g/ha in test [1] (setting [5]), in test [1] (setting [6]), in test [2] (setting [7]), in test [2] (setting [8]), in test [3] (setting [9]) and in test [3] (setting [10]) was 100% each time. Moreover, the pest or weed control at 250 g/ha in test [4] (setting [11]) and in test [4] (setting [12]) was 100% in each case.

In the case of `C=C(C)CNC(=O)CC1CC(=O)C(c2c(C)cc(-n3cc(Cl)cn3)cc2C)C1=O` (stereo not shown) [Compound B311], the pest or weed control at 250 g/ha in test [1] (setting [5]) is 80%; in test [1] (setting [6]), 80%; in test [2] (setting [7]) it was 70%; in test [2] (setting [8]), 90%; in test [3] (setting [9]), 100%; in test [3] (setting [10]) it was 90%. Further, the pest or weed control at 250 g/ha in test [4] (setting [11]) is 90%; in test [4] (setting [12]) it was 80%.

As for `C=CC(C)NC(=O)CC1CC(=O)C(c2c(C)cc(Br)cc2C)C1=O` (stereo not shown) [Compound B301], the pest or weed control at 250 g/ha is 70% in test [1] (setting [5]); 80% in test [1] (setting [6]); 50% in test [2] (setting [7]); 70% in test [2] (setting [8]); 70% in test [3] (setting [9]); 60% in test [3] (setting [10]). The pest or weed control at 250 g/ha in test [4] (setting [11]) came to 70%; in test [4] (setting [12]), 50%.

Take `Cc1cc(-c2ccc(Cl)cn2)cc(C)c1C1C(=O)CC(CC(=O)NC(C)C)C1=O` (stereo not shown) [Compound B360]: the pest or weed control at 250 g/ha in test [1] (setting [13]), in test [1] (setting [14]), in test [2] (setting [15]), in test [2] (setting [16]), in test [3] (setting [17]) and in test [3] (setting [18]) was 100% each time. In addition, the pest or weed control at 250 g/ha in test [4] (setting [19]) and in test [4] (setting [20]) was 100% each time.

In the case of `COCC(C)NC(=O)CC1CC(=O)C(c2c(C)cc(-c3ccc(Cl)cn3)cc2C)C1=O` (stereo not shown) [Compound B366], the pest or weed control at 250 g/ha stood at 90% in test [1] (setting [13]); 100% in test [1] (setting [14]); 90% in test [2] (setting [15]); 100% in test [2] (setting [16]); 100% in test [3] (setting [17]); 100% in test [3] (setting [18]). For the same molecule, the pest or weed control at 250 g/ha in test [4] (setting [19]) and in test [4] (setting [20]) was 100% in each case.
